Like-named read-outs stand apart in the source and are kept apart here.
System: human umbilical vein endothelial cells (HUVECs)
Assay: Tube formation assay of HUVEC on Matrigel
Type: cell-based
Settings: for formation of microvascular network of HUVEC (pictures): FIGS. 6-9; for inhibition at 50 µM: Homo sapiens, read-out: Percent Inhibition
Method: In order to do the tube formation assay, blood vessel endothelial cells, human umbilical vein endothelial cells (HUVECs), were isolated from freshly obtained cords after cesarean section according to Grant's method (Grants D S, et al., Cell, 58, pp933-943, 1989). They were identified by immunocytochemial staining with anti-Factor VIII antibody. HUVECs grown with Matrigel (BD Bioscience, Bedford, Mass., USA), were treated with the above Horse chestnut extract of the Example 1, and further incubated at 37° C. for 8-16 hrs. As a control, above procedure was repeated without Horse chestnut extract.
In order to identify the component responsible for anti-aniogenic acvity of Horse chestnut extract, components identified as in EXAMPLE 2, were subjected to the tube formation assay as described above. Since those chemicals are not soluble in water, they were dissolved in dimethyl sulfoxide (DMSO). In order to exclude the effect of solvent, HUVECs treated with the same amount of DMSO were used as a control. FIG. 5 is a picture of the 1% DMSO-treated HUVEC control, and FIGS. 6-9 are pictures showing the effect of individual components of the Horse chestnut on tube formation. […] Tubular network was disconnected by treatment with 50 μM of quercitrin, and esculetin.
The area of the tube was determined by image analysis program Image-Pro Plus® (Media Cybernetics, USA), and the results were summarized in Tables 1 and 2. […]

[1] = HUVEC tube formation, 50 μM, vs 1% DMSO control
[2] = HUVEC, 50 μM, vs 1% DMSO control

| Molecule | formation of microvascular network of HUVEC (pictures) (50 μM) | Percent Inhibition [1] | Area of the Tube (%) [2] [%] | inhibition at 50 µM (HUVEC) [%] | inhibition at 50 µM [1] [%] |
| --- | --- | --- | --- | --- | --- |
| aescin | completely inhibited | 100 | 0 | – | – |
| C[C@@H]1O[C@@H](Oc2c(-c3ccc(O)c(O)c3)oc3cc(O)cc(O)c3c2=O)[C@H](O)[C@H](O)[C@H]1O [Quercitrin, quercitrin] | – | – | 36 | 64 | – |
| O=c1ccc2cc(O[C@@H]3O[C@H](CO)[C@@H](O)[C@H](O)[C@H]3O)c(O)cc2o1 [Esculin, esculin] | less than that by esculetin | – | 85 | 15 | – |
| O=c1ccc2cc(O)c(O)cc2o1 [Esculetin, esculetin] | disconnected | – | 17 | – | 83 |

Reference: patent US9962331B2, “Composition containing horse chestnut extract” (priority 2001, dated 2018)
